As a reminder, the IC50 is the midpoint of a concentration-inhibition curve.

In one assay the target is T1, MMP-2 (Homo sapiens, UniProt P08253).
T1 sequence (P08253 110-660): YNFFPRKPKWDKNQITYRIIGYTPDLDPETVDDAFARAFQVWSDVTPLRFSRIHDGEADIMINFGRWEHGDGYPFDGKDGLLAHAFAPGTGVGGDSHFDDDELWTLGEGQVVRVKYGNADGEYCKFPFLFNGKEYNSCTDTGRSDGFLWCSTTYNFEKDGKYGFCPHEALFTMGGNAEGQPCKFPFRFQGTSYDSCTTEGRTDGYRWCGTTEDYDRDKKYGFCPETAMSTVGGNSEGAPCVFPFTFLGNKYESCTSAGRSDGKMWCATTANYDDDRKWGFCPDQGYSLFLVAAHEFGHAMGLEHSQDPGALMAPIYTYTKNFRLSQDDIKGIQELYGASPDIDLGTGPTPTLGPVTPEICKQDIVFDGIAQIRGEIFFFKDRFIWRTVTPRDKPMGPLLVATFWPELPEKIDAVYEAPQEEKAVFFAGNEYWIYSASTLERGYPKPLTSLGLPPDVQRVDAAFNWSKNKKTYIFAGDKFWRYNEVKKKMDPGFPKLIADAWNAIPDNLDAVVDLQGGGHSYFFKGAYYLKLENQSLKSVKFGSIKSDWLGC
The assay can be described thus: fluorimetric assay of MMP activity. The class given is biochemical. To be noted: synthetic fluorescent peptide substrate Mca-Lys-Pro-Leu-Gly-Leu-Dpa-Ala-Arg-NH2; read-out: IC50 MMP-2.

The subject of a further assay is mosquito bites. The assay can be described thus: mosquito bites on the arms of a human subject, topical. The assay is classed as in vivo. To be noted: Example 9. The text has this: Mosquitoes are presented with and allowed to bite the left and right arms of a human subject.
A further assay relates to skin wounds. Nature of the assay: histological and histomorphometric assessment of skin wounds. The class given is in vivo, rat. To be noted: diabetic rats, topical 1% and systemic compared with topical 3%, 7 days. Here is the method:
The following five experimental groups (n=3 rats per group) were established: Non-diabetic control rats (NDC) treated by daily application of white petrolatum jelly (“vehicle”) for 7 days, diabetic rats (D group) treated daily with vehicle alone; diabetics treated by daily topical application of either a 1% (D+1%) or a 3% (D+3%) suspension of Compound 4 in the vehicle; and diabetics treated systemically by daily oral intubation of a 1 ml suspension of Compound 4 (in carboxymethylcellulose) at a dose of 30 mg/kg over the 7-day treatment protocol (D+30 mg/kg). At the end of this time period, the circular wounds were clinically assessed by measuring diameter of the wound in millimeters, blood samples were collected, the rats were sacrificed, and skin samples collected for histological/histochemical, and biochemical assessment as described below. • 1) On day 7 after inducing wound healing, the animals were anesthetized and blood samples collected for blood glucose (one Touch Ultra Glucometer; Johnson & Johnson, New Brunswick, N.J.) and Hemoglobin A1c (A1c Now+; Bayer Health Care, Sunnyvale, Calif.) measurements. • 2) Photographs were taken for clinical observations to assess wound closure. […]

The target in a further assay is MMP-8 (Homo sapiens, UniProt P22894). Nature of the assay: fluorimetric assay of MMP activity. The assay is classed as biochemical. To be noted: synthetic fluorescent peptide substrate Mca-Lys-Pro-Leu-Gly-Leu-Dpa-Ala-Arg-NH2.
Sequence of MMP-8 (P22894 101-467): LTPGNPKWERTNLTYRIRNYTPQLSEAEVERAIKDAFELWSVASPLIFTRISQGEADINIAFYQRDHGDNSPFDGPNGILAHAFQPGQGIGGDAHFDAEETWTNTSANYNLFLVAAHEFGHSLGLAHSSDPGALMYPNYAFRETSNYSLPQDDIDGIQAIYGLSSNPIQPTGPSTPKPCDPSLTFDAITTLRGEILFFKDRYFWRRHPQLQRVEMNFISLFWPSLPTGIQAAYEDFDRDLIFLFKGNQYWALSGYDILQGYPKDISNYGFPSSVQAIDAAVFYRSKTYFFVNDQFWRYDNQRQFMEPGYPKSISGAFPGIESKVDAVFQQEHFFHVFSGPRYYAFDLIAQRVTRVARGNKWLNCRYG
Another assay concerns MMP-9. Nature of the assay: MMP-9 in conditioned media of peritoneal macrophages, gelatin zymography. The assay is classed as in vivo, rat. The following applies: diabetic rats, oral 30 mg/kg daily, 21 days; no LPS. Here is the method:
Adult male Sprague-Dawley rats (body weight 300-350 g) were injected through the tail vein with either 0.9% saline (non-diabetic control) or with the same solution containing streptozotocin (70 mg/kg body weight) to induce diabetes. Non-diabetic rats served as normal controls. The diabetic rats were distributed into 2 experimental groups (3 rats per group). Urine glucose levels were measured weekly with Tes-Tape (Eli Lilly Inc.). One group of rats was treated by oral gavage of Compound 4 (30 mg/kg body weight) daily for 21 days; the Compound 4 was suspended in 2% carboxymethyl cellulose and polytron/homogenized. The normal & diabetic vehicle-treated (control) groups were oral gavaged with vehicle alone daily.
Rat peritoneal macrophages were harvested with 10 ml RPMI 4 days after intraperitoneal injection of 10 ml of thioglycolate (3% wt/vol). Macrophages were then purified by density gradient centrifugation (lymphoprep) and cell numbers were counted in a hemocytometer. The cells were then tested in a cell migration assay (Cell BioLabs, Inc, CytoSelect 96-well with 5 um fluorometric format) using conditioned medium containing inflammatory mediators including MCP-1 from LPS-macrophages as a chemoattractant. The macrophages from different groups of rats were also plated onto 24 well-plates with and without p.g.LPS challenge for 24 hours in 37° C., 5% CO2. […]

Turning to `O=C(/C=C/c1ccc(O)cc1)C(C(=O)/C=C/c1ccc(O)cc1)C(=O)Nc1ccccc1` [Compound 4, 1,7-Bis(4-hydroxyphenyl)-4-N-phenylaminocarbonylhepta-1E, 6E-dien-3,5-dione], the IC50 came to 4.8 ± 0.5 µM at MMP-2 and 4.5 ± 0.5 µM against MMP-8. Moreover, the “itching and healing of mosquito bites compared with Compound 2” value with mosquito bites was “stop itching sooner and heal quicker”. The “histological healing of epithelium and connective tissue” value in the assay on skin wounds was “more effective than treatment with topical 3% Compound 4”. Moreover, the “MMP-9 levels in peritoneal macrophages” value in the assay on MMP-9 was “decreased”.
